Test results from patent publication US7053194B2, “Compositions and methods for p53-mediated repression of gene expression” (Fox Chase Cancer Center, priority 1999, dated 2006).

Tests used:
[1] = test system: H1299 human lung adenocarcinoma; assay: Northern analysis of stathmin mRNA in p53-null cells; assay type: cell-based; conditions: H1299, null for p53
[2] = test system: MCF7 cells; assay: Cyclin-dependent kinase assays; assay type: cell-based, human; conditions: MCF7 treated with doxorubicin
Method: Cyclin-dependent kinase assays were performed essentially as described (Harper et al., 1993), using 250 ug of whole cell extract immunoprecipitated with 0.5 ug of polyclonal antisera to cdk2 (Santa Cruz Biotechnology), cyclin E and cyclin A. Following immunoprecipitation and washing, 1 ug of histone H1 (Sigma) was used as a substrate, in kinase reaction buffer (20 mM Tris pH 7.4/7.5 mM MgCl2/1 mM DTT), supplemented with 5 mM sodium fluoride, 1 mM sodium ortho-vanadate, and 125 ng/uL cAMP-dependent protein kinase inhibitor (Sigma). 0.5 uL of ^32P-ATP (NEN, 800 Ci/mmol) was added to each reaction, and 0.5 ug of normal rabbit IgG (Sigma) was used as a negative control. Following incubation at 37 degrees for 20 minutes, reactions were boiled in Laemmli sample buffer and loaded onto 10% SDS-PAGE. Cells for flow cytometry were fixed in ethanol and stained with propidium iodide as described (Murphy et al., Genes & Devel. 10:2971–2980, 1996) and analyzed on a Becton Dickinson FacScan. G1, S (synthesis) and G2/M populations were calculated using the program CellQuest.
This finding is consistent with flow cytometry data, which indicate that these cells are arrested in G2/M (not shown). As a negative control, normal rabbit IgG is used instead of polyclonal antisera for the immunoprecipitations and kinase assays (lanes 1 and 4).

[3] = test system: human breast carcinoma cells (MCF7); assay: Northern analysis of survivin mRNA after doxorubicin; assay type: cell-based; conditions: MCF7, 0.5 ug/mL doxorubicin, as early as twelve hours
Method: MCF-7 cells were maintained in RPMI-1640 supplemented with 10% fetal bovine serum and 100 units/ml of penicillin and streptomycin. The human melanoma cell line CaCl, and the derivative clone expressing the HPV E6 gene, were cultured as described (Ahn et al., Oncogene). The human osteosarcoma cell lines Saos-2 and U2-OS (kindly provided by Peter Adams, Fox Chase Cancer Center), the murine p21 knock-out fibroblasts (kindly provided by James Sherley, MIT) and the human lung adenocarcinoma cell line H1299 were cultured in DMEM supplemented with 10% fetal bovine serum and 100 units/ml of penicillin and streptomycin. Murine Va15 cells, containing the temperature-sensitive Valine 135 allele of p53, were maintained as described (Wu, et al., Genes & Devel. 7:1126–1132, 1993). All cells were grown at 37° C. […] For treatment with ultra-violet light, cells were irradiated with 0–10 J/m2 (as noted) of UV-C with a Spectroline X series ultraviolet lamp, and output was monitored with a traceable UV light meter (Fisher Scientific). […]
The full-length coding region for survivin was generated by reverse transcription-polymerase chain reaction (RT-PCR) using 5 ug of total RNA from the H1299 human lung adenocarcinoma cell line, using the Access RT-PCR kit (Promega) and the following oligonucleotides: forward 5′ […] […] Autoradiographs were quantitated using NIH image software. […]

[4] = test system: Saos2 (p53-null) and U20S (wt p53); assay: Western analysis of survivin after doxorubicin in osteosarcoma lines; assay type: cell-based, human; conditions: Saos2 (p53-null) versus U20S (wt p53), doxorubicin treatment
Method: MCF-7 cells were maintained in RPMI-1640 supplemented with 10% fetal bovine serum and 100 units/ml of penicillin and streptomycin. The human melanoma cell line CaCl, and the derivative clone expressing the HPV E6 gene, were cultured as described (Ahn et al., Oncogene). The human osteosarcoma cell lines Saos-2 and U2-OS (kindly provided by Peter Adams, Fox Chase Cancer Center), the murine p21 knock-out fibroblasts (kindly provided by James Sherley, MIT) and the human lung adenocarcinoma cell line H1299 were cultured in DMEM supplemented with 10% fetal bovine serum and 100 units/ml of penicillin and streptomycin. […] For treatment with ultra-violet light, cells were irradiated with 0–10 J/m2 (as noted) of UV-C with a Spectroline X series ultraviolet lamp, and output was monitored with a traceable UV light meter (Fisher Scientific). For drug treatment, cells were treated with 0.5ug/ml adriamycin (doxorubicin, Sigma), or dilution vehicle alone, for twenty-four hours. p53 induction was monitored by western analysis of 100 ug protein as described (Murphy et al., Genes & Devel. 10:2971–2980, 1996), using 0.1ug/ml DO-1 (Ab-6, Calbiochem) or 421 (Ab-1, Calbiochem.
Western analysis was performed essentially as described (Murphy et al., 1999). […] Protein concentrations were determined using the Bio-Rad Dc Protein Assay (Bio-Rad). […]

COc1cccc2c1C(=O)c1c(O)c3c(c(O)c1C2=O)C[C@@](O)(C(=O)CO)C[C@@H]3O[C@H]1C[C@H](N)[C@H](O)[C@H](C)O1 [adriamycin, doxorubicin]
effect on stathmin levels [1]: neither TSA nor adriamycin had any effect on stathmin levels
cdk2, cyclin A and cyclin E kinase activities [2]: all activities are low
cell cycle arrest [2]: arrest in G2/M phase
mRNA levels for survivin [3]: marked decreases in mRNA levels for survivin
survivin protein levels [4]: decreased survivin protein levels only in cells with wt p53 (U20S)
